Where two headings read alike, the source gives them in different places. Where a SMILES comes first, the peptide text is derived from it. [ ]: non-standard residue; d: D form. Aib = CC(C)(N)C(=O)O
What was measured:
[1] = tested on: PLP-induced relapsing-remitting experimental autoimmune encephalomyelitis (EAE) model; test: PLP-induced relapsing-remitting EAE model; assay type: in vivo; design: CSmax during relapse (mean ± SEM) / Area under curve (mean ± SEM): scale not given here; conditions: 4 mg/kg s.c.; for Area under curve (mean ± SEM): clinical score vs days post-inoculation, out to 60 days; for CSmax during relapse (mean ± SEM): maximal clinical score during relapse; for Relapse Rate: number of animals experiencing a relapse
Description: To further compare the activity of the various ApoE analogs, the efficacy of the analogs was assessed in a PLP-induced relapsing-remitting experimental autoimmune encephalomyelitis (EAE) model. […] The second dose was administered the next day followed by three times a week (M, W, F). Relapse rate represents the number of animals experiencing a relapse, while the CSmax indicates the maximal clinical score during relapse. Area under curve represents the area under the curve in a plot of clinical score vs. days post-inoculation (out to 60 days). […] The improvement in relapse rate and clinical score in the EAE model by ApoE analog treatment may be due, in part, to the remyelination-promoting effect of the ApoE analogs.

Maximum tolerated dose = assay type: in vivo; conditions: for MTD: in vivo
Excerpt: To fully evaluate the use of ApoE analogs as therapeutic compounds, the margin of safety should also be determined. Towards that end, we determined the maximum tolerated dose of COG 112, COG 248, and COG 345 when administered by intravenous and subcutaneous injection.

[2] = tested on: myelin oligodendrocyte glycoprotein (MOG)-induced experimental autoimmune encephalomyelitis (EAE) model; test: MOG-induced EAE model of multiple sclerosis, treatment after disease onset; assay type: in vivo, C57BL/6J mice; conditions: for maximal severity of disability / progress of the disease (clinical score) / mice exhibiting complete remission: 1 mg/kg i.p. daily from first CS≥2; for burden of disability (area under curve of clinical score): 1 mg/kg i.p., data not shown; for demyelination and infiltration of peripheral mononuclear cells in spinal cord: Luxol Fast Blue and eosin staining; for mice exhibiting complete remission: dpi 35, saline control 22%
Description: FIG. 1. […] (B) Percentage of animals in remission. Statistical analysis was conducted by ANOVA comparing the CS after day 18, which was defined as the recovery phase. FIG. 2. Representative histopathology of EAE in mice treated with COG 112 or saline control. 5 μm thick sections were stained with Luxol fast blue and eosin to reveal demyelination and peripheral infiltrates. The left panels show the pathological changes in spinal cord from cervical (A), thoracic (B) and lumbar (C) segments of a saline-treated control animal. Demyelination is shown as loss of blue staining in white matter and peripheral infiltrates are stained with purple particles. Panels D, E and F show the corresponding segments of a COG 112-treated animal where no obvious demyelination is observed. The boxed-insets of panel A and D are magnified 10× in panel G and H, respectively. FIG. 3. Profiling and quantification of T cell subset infiltrates in the spinal cords of animals on 21 days post-immunization that were treated with or without COG 112. Single-cell suspensions of spinal cord were stained with anti-CD3, CD4, and CD8 mAbs. Frequency of CD3+CD45+ cytometry (T cell) is represented in control (A) and COG112-treated (C) animals. Frequency of CD4+ and CD8+ T cells is represented in saline control (B) and COG 112-treated (D) mice. Total cell number for each of the specific cell surface markers is calculated and expressed as number per spinal cord (E). […] C57BL/6J mice were first immunized with MOG to create an EAE model. […] One of the pathological hallmarks of MS is extensive demyelination of the myelin sheath surrounding neurons accompanied by massive infiltration of peripheral leukocytes into the brain and the spinal cord, all of which contribute to the clinical manifestations of neurological disability. We further examined the effects of COG peptides on demyelination and leukocyte-influx into the spinal cords by Luxol Fast Blue (LFB) and Eosin staining. […] Panel G is a magnified view of the boxed area in A. […] Single-cell suspensions of spinal cord were stained with anti-CD3, CD4, and CD8 mAbs. As shown in FIGS. 3A & C, the frequency of CD3+ T cells in the spinal cords of mice treated with COG 112 was reduced as compared to vehicle controls on dpi 21.

[3] = tested on: animal model of human diseases; test: Minimum effective dose in animal models; assay type: in vivo
[4] = sc, subcutaneous injection, read-out: Maximum Tolerated Dose Subcutaneous
[5] = intravenous injection, read-out: Maximum Tolerated Dose Intravenous

Compound | Area under curve (mean ± SEM) [1] | CSmax during relapse (mean ± SEM) [1] | Relapse Rate [1] | MTD (Maximum tolerated dose; [4]) [mg/kg] | MTD (Maximum tolerated dose; [5]) [mg/kg] | maximal severity of disability [2] | progress of the disease (clinical score) [2] | burden of disability (area under curve of clinical score) [2] | demyelination and infiltration of peripheral mononuclear cells in spinal cord [2] | mice exhibiting complete remission [2] [%] | Minimum Effective Dose (model) ([3]; models: CIA, EAE) | CD4+ T cell infiltration into the spinal cord ([2]; dpi 21, vs vehicle) | frequency of CD3+ T cells in the spinal cord ([2]; dpi 21, vs vehicle) | number of CD8+ T cells in the spinal cord ([2]; dpi 21, vs vehicle) | Minimum Effective Dose (model) ([3]; models: EAE, TBI) | improvement in relapse rate and maximum clinical score during relapse [1] | safety profile by intravenous injection (Maximum tolerated dose; compared to the other analogs on a molar basis) | Minimum Effective Dose (model) ([3]; model: EAE)
CC(=O)N[C@@H](CC(C)C)C(=O)N[C@@H](CCCNC(=N)N)C(=O)N[C@H](C(=O)N[C@@H](CCCNC(=N)N)C(=O)N[C@@H](CC(C)C)C(=O)N[C@@H](C)C(=O)N[C@@H](CO)C(=O)N[C@@H](Cc1c[nH]cn1)C(=O)N[C@@H](CC(C)C)C(=O)N[C@@H](CCCNC(=N)N)C(=O)N[C@@H](CCCCN)C(=O)N[C@@H](CC(C)C)C(=O)N[C@@H](CCCNC(=N)N)C(=O)N[C@@H](CCCCN)C(=O)N[C@@H](CCCNC(=N)N)C(=O)N[C@@H](CC(C)C)C(=O)N[C@@H](CC(C)C)C(N)=O)C(C)C [COG 133] | 25.3 ± 8.3 | 3.2 ± 0.7 | 7/14 | > 100 | 16 | significantly reduced the maximal severity of disability | significantly slowed the deleterious progress of the disease | significantly reduced the burden of disability | greatly reduced | 50 | 1 mg/kg (CIA, EAE) |  |  |  |  |  |  | 
Ac-RQIKIWFQNRRMKWKKCLRVRLASHLRKLRKRLL-NH2 [COG 112] | 16.7 ± 3.6 | 2.4 ± 0.8 | 5/14 | > 100 | 28 | significantly reduced the maximal severity of disability | significantly slowed the deleterious progress of the disease | significantly reduced the burden of disability | greatly reduced | 71 |  | significantly reduced | reduced | no significant difference | 1 mg/kg (EAE, TBI) |  |  | 
CC(=O)NC(=N)NCCC[C@H](NC(=O)[C@H](CCCCN)NC(=O)[C@H](CCCNC(=N)N)NC(=O)[C@H](CC(C)C)NC(=O)[C@H](CCCCN)NC(=O)[C@H](CCCNC(=N)N)NC(=O)[C@H](CC(C)C)NC(=O)C(C)(C)NC(=O)[C@H](CO)NC(=O)[C@H](C)NC(=O)[C@H](CC(C)C)NC(=O)[C@H](CCCNC(=N)N)NC(=O)[C@@H](NC(=O)[C@H](CCCNC(=N)N)NC(=O)[C@H](CC(C)C)NC(C)=O)C(C)C)C(=O)N[C@@H](CC(C)C)C(=O)N[C@@H](CC(C)C)C(N)=O [COG 345, acetyl-LRVRLAS-Aib-LRKLRK(acetyl-Arg)LL-amide] (Ac-LRVRLAS[Aib]LRKLRKR(Ac)LL-NH2) | 15.5 ± 2.5 | 1.4 ± 0.2 | 4/15 | > 150 | 20 to 25 |  |  |  |  |  |  |  |  |  |  | significant improvement | superior safety profile | 1 mg/kg (EAE)
